Experimental data from patent US20260109707A1, “HETEROBIFUNCTIONAL COMPOUNDS AND METHODS OF TREATING DISEASE” (Halda Therapeutics OpCo. Inc., priority 2022, published 2026).

Columns and labels:
[1] = molecular target: T1, BRD4-BD1 (Homo sapiens, UniProt O60885); test: bromoKdELECT assay for binding affinity to BRD4-BD1; details: binding to BRD4-BD1, Table 4
T1 construct: made in house; host or cells: T7 phage grown in an E. coli host derived from the BL21 strain
Procedure: (§1) Compounds were tested using a bromoKdELECT assay. T7 phage strains displaying bromodomains were grown in parallel in 24-well blocks in an E. coli host derived from the BL21 strain. E. coli were grown to log-phase and infected with T7 phage from a frozen stock (multiplicity of infection=0.4) and incubated with shaking at 32° C. until lysis (90-150 minutes). The lysates were centrifuged (5,000×g) and filtered (0.2 μm) to remove cell debris. Streptavidin-coated magnetic beads were treated with biotinylated small molecule or acetylated peptide ligands for 30 minutes at room temperature to generate affinity resins for bromodomain assays. The liganded beads were blocked with excess biotin and washed with blocking buffer (SeaBlock (Pierce), 1% BSA, 0.05% Tween 20, 1 mM DTT) to remove unbound ligand and to reduce nonspecific phage binding. Binding reactions were assembled by combining bromodomains, liganded affinity beads, and test compounds in 1× binding buffer (17% SeaBlock, 0.33×PBS, 0.04% Tween 20, 0.02% BSA, 0.004% Sodium azide, 7.4 mM DTT). Test compounds were prepared as 1000× stocks in 100% DMSO. Kds were determined using an 11-point 3-fold compound dilution series with one DMSO control point. All compounds for Kd measurements are distributed by acoustic transfer (non-contact dispensing) in 100% DMSO. The compounds were then diluted directly into the assays such that the final concentration of DMSO was 0.09%. All reactions performed in polypropylene 384-well plates. Each was a final volume of 0.02 ml. The assay plates were incubated at room temperature with shaking for 1 hour and the affinity beads were washed with wash buffer (1×PBS, 0.05% Tween 20). The beads were then resuspended in elution buffer (1×PBS, 0.05% Tween […] non-biotinylated affinity ligand) and incubated at room temperature with shaking for 30 minutes. The bromodomain concentration in the eluates was measured by qPCR.

[2] = molecular target: T2, BRD4-BD2 (Homo sapiens, UniProt O60885); test: bromoKdELECT assay for binding affinity to BRD4-BD2; details: binding to BRD4-BD2, Table 5
T2 construct: made in house; host or cells: T7 phage grown in an E. coli host derived from the BL21 strain
Procedure: as §1, with “[…])” for “μm)”

[3] = molecular target: T3, progesterone receptor (Homo sapiens, UniProt P06401); test: PR Human Progesterone NHR Binding (Agonist Radioligand) Assay; details: binding to the progesterone receptor, cytosolic fractions of T47D cells, Table 12
T3 sequence (P06401 679-933 limits assumed): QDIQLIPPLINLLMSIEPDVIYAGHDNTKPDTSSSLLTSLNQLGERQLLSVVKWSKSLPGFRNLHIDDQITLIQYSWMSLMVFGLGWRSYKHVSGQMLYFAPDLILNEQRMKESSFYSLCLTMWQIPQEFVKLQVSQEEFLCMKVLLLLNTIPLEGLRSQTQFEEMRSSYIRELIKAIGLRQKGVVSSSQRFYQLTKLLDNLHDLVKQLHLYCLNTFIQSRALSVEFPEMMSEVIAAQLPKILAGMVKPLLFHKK
Procedure: Compounds were tested using the PR Human Progesterone NHR Binding (Agonist Radioligand) Assay, Cerep at Eurofins Discovery using a modified version of the protocol from Sarup et al. (Cancer Res 1988; 48:5071-5078). Briefly, cytosolic fractions of T47D cells were incubated with 0.5 nM [^3H]progesterone for 1 hour at 4° C. in the absence or presence of the test compound. Nonspecific binding was determined in the presence of 1 μM promegestone. Reactions were subjected to scintillation counting. Results are expressed as a percent inhibition of the control radioligand specific binding.

[4] = molecular target: T4, progesterone receptor ligand binding domain (LBD) (Homo sapiens, UniProt P06401); test: FP assay for binding affinity to progesterone receptor (PolarScreen Progesterone Receptor Competitor Assay Kit); details: fluorescence polarization, GST-tagged PR LBD, Table 13
T4 construct: GST-tagged PR LBD, Fluormone tracer, and compound were mixed and incubated for 2 hours; purchased Life Technologies A15905 or a15906
T4 sequence (P06401 679-913 limits assumed): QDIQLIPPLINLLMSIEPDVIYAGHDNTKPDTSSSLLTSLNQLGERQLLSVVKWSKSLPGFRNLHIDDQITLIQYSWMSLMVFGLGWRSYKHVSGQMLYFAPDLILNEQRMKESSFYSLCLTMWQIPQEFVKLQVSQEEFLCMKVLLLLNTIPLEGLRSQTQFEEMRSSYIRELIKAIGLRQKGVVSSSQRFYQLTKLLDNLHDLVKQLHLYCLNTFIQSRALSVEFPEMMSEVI
Procedure: Compounds were tested using the PolarScreen™ Progesterone Receptor Competitor Assay Kit (Life Technologies Cat #A15905 or a15906), as per the manufacturer's instructions. Briefly, GST-tagged PR LBD, Fluormone tracer, and compound were mixed and incubated for 2 hours at room temperature in the dark. Following incubation, the plates were spun at 3000×g for 30 seconds, then sealed with an optical adhesive cover, and fluorescence polarization was measured using appropriate excitation and emission filters with an EnVision Plate Reader (Perkin Elmer). Compound concentration vs. mP value were plotted in Prism (GraphPad). A four-parameter non-linear regression curve fit was applied to dose-response data to determine the half-maximal inhibitory concentration (IC50) for each test compound.

CCNC(=O)C[C@@H]1N=C(c2ccc(CCCOC3CCN(c4ccc(C(=O)N[C@H]5CC[C@H](Oc6ccc(C#N)c(Cl)c6)CC5)nn4)CC3)cc2)c2c(sc(C)c2C)-n2c(C)nnc21 [I-17]
Kd [1]: 50 to 500 nM | Kd [2]: < 50 nM

CCNC(=O)C[C@@H]1N=C(c2ccc(OCC3CN(c4ccc(C(=O)N[C@H]5CC[C@H](Oc6ccc(C#N)c(Cl)c6)CC5)nn4)C3)cc2)c2c(sc(C)c2C)-n2c(C)nnc21 [I-29]
Kd [3]: 50 to 500 nM

CCNC(=O)C[C@@H]1N=C(c2ccc(CC3CCN(c4ccc(C(=O)N[C@H]5CC[C@H](Oc6ccc(C#N)c(Cl)c6)CC5)nn4)CC3)cc2)c2c(sc(C)c2C)-n2c(C)nnc21 [I-20]
Kd [1]: 50 to 500 nM | Kd [2]: 50 to 500 nM

CCNC(=O)C[C@@H]1N=C(c2ccc(N3CCC(OC4CCN(c5ccc(C(=O)N[C@H]6CC[C@H](Oc7ccc(C#N)c(Cl)c7)CC6)nn5)CC4)CC3)cc2)c2c(sc(C)c2C)-n2c(C)nnc21 [I-44]
Kd [1]: 50 to 500 nM | Kd [2]: 50 to 500 nM | Kd [3]: 50 to 500 nM

Cc1sc2c(c1C)C(c1ccc(Cl)cc1)=N[C@@H](CC(=O)NCCOCCOCCOC1CCN(c3ccc(C(=O)N[C@H]4CC[C@H](Oc5ccc(C#N)c(Cl)c5)CC4)nn3)CC1)c1nnc(C)n1-2 [I-2, N-[4-(3-chloro-4-cyano-phenoxy)cyclohexyl]-6-[4-[2-[2-[2-[[2-[(9S)-7-(4-chlorophenyl)-4,5,13-trimethyl-3-thia-1,8,11,12-tetrazatricyclo[8.3.0.0^2,6]trideca-2(6),4,7,10,12-pentaen-9-yl]acetyl]amino]ethoxy]ethoxy]ethoxy]-1-piperidyl]pyridazine-3-carboxamide]
Kd [3]: 50 to 500 nM | IC50 [4]: 50 to 500 nM

Cc1sc2c(c1C)C(c1ccc(Cl)cc1)=N[C@@H](CC(=O)NCCOC1CCN(c3ccc(C(=O)N[C@H]4CC[C@H](Oc5ccc(C#N)c(Cl)c5)CC4)nn3)CC1)c1nnc(C)n1-2 [I-1, N-[4-(3-chloro-4-cyano-phenoxy)cyclohexyl]-6-[4-[2-[[2-[(9S)-7-(4-chlorophenyl)-4,5,13-trimethyl-3-thia-1,8,11,12-tetrazatricyclo[8.3.0.0^2,6]trideca-2(6),4,7,10,12-pentaen-9-yl]acetyl]amino]ethoxy]-1-piperidyl]pyridazine-3-carboxamide]
Kd [1]: 50 to 500 nM

CCNC(=O)C[C@@H]1N=C(c2ccc(N3CC4(C3)CN(c3ccc(C(=O)N[C@H]5CC[C@H](Oc6ccc(C#N)c(Cl)c6)CC5)nn3)C4)cc2)c2c(sc(C)c2C)-n2c(C)nnc21 [I-24]
Kd [1]: 50 to 500 nM | Kd [2]: 50 to 500 nM
